Like-named read-outs stand apart in the source and are kept apart here.
Key:
NK cells = assay: NK cell cancer-killing activity assay with immune cells from cancer patients; format: cell-based, human
Experimental: Immune cells were obtained from blood samples of 73 cancer patients. The capability of these immune cells to kill tumor cells in vitro was determined using a conventional cellular NK activity assay (Neri et al, Clin. Diagn. Lab. Immunol. 2001 November; 8(6): 1131-1135).
Control samples for these assays employed immune cells from patients diagnosed as having no detectable cancer. One exemplary test run (FIG. 4) compared nine patient samples side by side (samples 4 and 5 are controls, from patients with no cancer).

[1] = system: alpha-N-acetylgalactosaminidase (nagalase); details: human, in vivo
Stage IV cancer = system: Stage IV cancer
Experimental: A ten-year, multi-center cancer study was conducted wherein we recruited a total of 675 Stage IV cancer patients. These patients were treated and closely monitored through four participating medical and naturopathic clinics, with each clinic following standard therapeutic, monitoring and reporting protocols for each patient over a minimum study period of five years. The patients in these studies were all diagnosed by standard diagnostic methods (e.g., using tumor visualization, cytology, biopsy, blood assays for circulating tumor markers, etc.) at the start of the study as having Stage IV cancer, according to conventional diagnostic standards. Cancer types were grouped by primary cancer cytology/histochemistry, patient history and other standard criteria.
Of the 675 enrolled patients, 128 patients entered the study with diagnosed Stage IV breast cancer, 91 with Stage IV colon/rectal cancer, 34 with Stage IV head/neck cancer, 86 with Stage IV lung cancer, 32 with Stage IV non-Hodgkin's lymphoma (NHL), 28 with Stage IV melanoma, 36 with Stage IV ovarian cancer, 37 with Stage IV pancreatic cancer, 76 with Stage IV prostate cancer, 18 with Stage IV renal cancer, 23 with Stage IV sarcoma, and 34 with Stage IV uterine cancer.
Many of the enrolled subjects in this clinical study presented with Stage IV cancer that had persisted for many months, and in many cases years, following a prior Stage IV cancer diagnosis, and after having undergone one or more failed rounds of conventional oncotherapy (typically a combination of surgery, chemotherapy, radiation and/or hormonal therapy as indicated). These subjects are classified as “non-responsive” to conventional oncotherapy. A majority of the remaining study subjects enrolled in our study after an original Stage III or Stage IV cancer diagnosis, followed by conventional oncotherapy prior to the study, and presented at the time of study enrollment with disease progression to Stage IV cancer or with relapse of a prior, treated cancer. These subjects are classified as “treatment resistant” or “refractory” Stage IV cancer patients.
All patients remained throughout the study period in contact with medical providers who maintained regular monitoring of the subject's disease condition (with regular exams, including blood work testing for cancer markers, cytology, CT scans, PET scans, biopsy where indicated, and other diagnostic monitoring). Many of the study patients, while classified as having “treatment-resistant” Stage IV disease, nonetheless continued with some form of conventional oncotherapy (e.g., low dose chemotherapy) as recommended by their oncologist. […] About half of these subjects received conventional dose chemotherapy at some point, while the remainder received “low dose chemotherapy” (e.g., using a 10-15% dosing of a standard chemotherapeutic drug such as a taxane). […] Additionally, patients with breast cancer, ovarian cancer, uterine cancer and prostate cancer remained on any oncologist-prescribed hormonal therapy.
In certain cases, all 15 iv treatments were administered over a consecutive 15-day period, while in others the 15 iv treatments were scheduled over as much as a one-month period to accommodate patient scheduling factors.
All subjects were regularly examined for diagnostic cancer indicators, assessed according to standard methods.

[2] = Stage IV Non-Hodgins Lymphoma, number of patients out of 32 studied
[3] = Stage IV breast cancer, number of patients out of 128 studied
[4] = Stage IV colon/rectal cancer, number of patients out of 91 studied
[5] = Stage IV head/neck cancer, number of patients out of 34 studied
[6] = Stage IV lung cancer, number of patients out of 86 studied
[7] = Stage IV melanoma, number of patients out of 29 studied
[8] = Stage IV non-Hodgkin's lymphoma
[9] = Stage IV ovarian cancer, number of patients out of 36 studied
[10] = Stage IV pancreatic cancer, number of patients out of 37 studied
[11] = Stage IV prostate cancer, number of patients out of 76 studied
[12] = Stage IV renal cancer, number of patients out of 18 studied
[13] = Stage IV sarcoma, number of patients out of 23 studied
[14] = Stage IV uterine cancer, number of patients out of 34 studied

Substance: 4-(beta-D-allopyranosyloxy)-benzaldehyde [Salicinium]
- average increase in NK cell cancer-killing activity compared to basal (NK cells; cumulative samples (73 cancer patients), helicidum 0.5 mg/ml, 24 hours): 2.6 times
- increase in NK cell cancer-killing activity above basal activity (NK cells; exemplary test run, FIG. 4, cancer patient samples, helicidum 0.5 mg/ml, 24 hours): from about 50% to 2- or 3-fold, up to about 4-fold or higher
- increase in NK cell activity in control samples (NK cells; immune cells from patients with no detectable cancer, Salicinium present): little or no increase in NK cell activity
- median nagalase level [1]: 0.78 Units
- patients with pronounced reductions in nagalase levels [1]: 83%
- study patients with nagalase levels below 0.95 Units (normal range) [1]: 86%
- study patients with nagalase levels below 1.0 units [1]: 72%
- therapeutic benefit (rates of stable disease, remission and survival) in smaller study groups (Stage IV cancer; 51 additional patients: ALL, AML, astrocytoma, bladder, CLL, esophageal, gall bladder, stomach, glioblastoma, Hodgkin's, liver, mesothelioma, myeloma, testicular, thyroid, five years): significant therapeutic benefits
- Complete Remission, patient status through end of five year study period (Stage IV cancer; [2]): 6
- Not Surviving, patient status through end of five year study period (Stage IV cancer; [2]): 15
- Partial Remission, patient status through end of five year study period (Stage IV cancer; [2]): 5
- Stable Disease, patient status through end of five year study period (Stage IV cancer; [2]): 6
- five-year survival rate (Stage IV cancer; Stage IV breast cancer): 69%
- patients with stable disease or in partial remission at end of five-year study (Stage IV cancer; Stage IV breast cancer): 53%
- increase in five-year survival expectancy versus NIH median (Stage IV cancer; Stage IV breast cancer, from 16% (NIH median) to 69%): greater than four-fold increase
- Complete Remission, patient status through end of five year study period (Stage IV cancer; [3]): 21
- Not Surviving, patient status through end of five year study period (Stage IV cancer; [3]): 39
- Partial Remission, patient status through end of five year study period (Stage IV cancer; [3]): 30
- Stable Disease, patient status through end of five year study period (Stage IV cancer; [3]): 38
- patients in complete remission at end of five-year study (Stage IV cancer; Stage IV breast cancer, of 128 enrolled): 16%
- patients in total remission (Stage IV cancer; Stage IV colon/rectal cancer): 5%
- patients surviving with stable disease or partial remission (Stage IV cancer; Stage IV colon/rectal cancer): 56%
- total five-year survival percentage (Stage IV cancer; Stage IV colon/rectal cancer, 91 patients): 61%
- survival versus NIH median survival (Stage IV cancer; Stage IV colon/rectal cancer, NIH median 8-15% (average 11.5%)): more than five-times greater
- Complete Remission, patient status through end of five year study period (Stage IV cancer; [4]): 5
- Not Surviving, patient status through end of five year study period (Stage IV cancer; [4]): 35
- Partial Remission, patient status through end of five year study period (Stage IV cancer; [4]): 15
- Stable Disease, patient status through end of five year study period (Stage IV cancer; [4]): 36
- five-year survival (Stage IV cancer; Stage IV head/neck cancer): 53%
- subjects in complete remission (Stage IV cancer; Stage IV head/neck cancer): 12%
- subjects stable or in partial remission (Stage IV cancer; Stage IV head/neck cancer): 41%
- Complete Remission, patient status through end of five year study period (Stage IV cancer; [5]): 4
- Not Surviving, patient status through end of five year study period (Stage IV cancer; [5]): 16
- Partial Remission, patient status through end of five year study period (Stage IV cancer; [5]): 0
- Stable Disease, patient status through end of five year study period (Stage IV cancer; [5]): 14
- five-year survival (Stage IV cancer; Stage IV lung cancer): 62%
- patients stable or in partial remission (Stage IV cancer; Stage IV lung cancer): 56%
- total remission rate (Stage IV cancer; Stage IV lung cancer): 6%
- increase in survival expectancy compared to NIH published data (Stage IV cancer; Stage IV lung cancer, NIH median survival 50%): > 10%
- Complete Remission, patient status through end of five year study period (Stage IV cancer; [6]): 5
- Not Surviving, patient status through end of five year study period (Stage IV cancer; [6]): 33
- Partial Remission, patient status through end of five year study period (Stage IV cancer; [6]): 10
- Stable Disease, patient status through end of five year study period (Stage IV cancer; [6]): 38
- five-year survival (Stage IV cancer; Stage IV melanoma): 52%
- increase in patient survival over median survival (Stage IV cancer; Stage IV melanoma, NIH 15-20%, average 17.5%): about a three-fold increase
- Complete Remission, patient status through end of five year study period (Stage IV cancer; [7]): 0
- Not Surviving, patient status through end of five year study period (Stage IV cancer; [7]): 14
- Partial Remission, patient status through end of five year study period (Stage IV cancer; [7]): 8
- Stable Disease, patient status through end of five year study period (Stage IV cancer; [7]): 7
- five-year survival (Stage IV cancer; [8]): 53%
- subjects in total remission (Stage IV cancer; [8]): 19%
- subjects stable or in partial remission (Stage IV cancer; [8]): 34%
- overall five-year survival rate (Stage IV cancer; Stage IV ovarian cancer): 55%
- subjects in complete remission at end of study (Stage IV cancer; Stage IV ovarian cancer): More than 10%
- survival versus NIH median survival (Stage IV cancer; Stage IV ovarian cancer, NIH median 17%): more than three times
- Complete Remission, patient status through end of five year study period (Stage IV cancer; [9]): 4
- Not Surviving, patient status through end of five year study period (Stage IV cancer; [9]): 16
- Partial Remission, patient status through end of five year study period (Stage IV cancer; [9]): 5
- Stable Disease, patient status through end of five year study period (Stage IV cancer; [9]): 11
- five-year survival rate (Stage IV cancer; Stage IV pancreatic cancer): 46%
- survival versus median survival expectancy (Stage IV cancer; Stage IV pancreatic cancer, NIH median 4%): more than 11 times
- Complete Remission, patient status through end of five year study period (Stage IV cancer; [10]): 0
- Not Surviving, patient status through end of five year study period (Stage IV cancer; [10]): 20
- Partial Remission, patient status through end of five year study period (Stage IV cancer; [10]): 0
- Stable Disease, patient status through end of five year study period (Stage IV cancer; [10]): 17
- five-year survival (Stage IV cancer; Stage IV prostate cancer): 78%
- patients in total disease remission (Stage IV cancer; Stage IV prostate cancer): 20%
- patients surviving in stable or partial remission status (Stage IV cancer; Stage IV prostate cancer): 58%
- survival versus NIH published median survival (Stage IV cancer; Stage IV prostate cancer, NIH median 33%): more than double
- Complete Remission, patient status through end of five year study period (Stage IV cancer; [11]): 15
- Not Surviving, patient status through end of five year study period (Stage IV cancer; [11]): 16
- Partial Remission, patient status through end of five year study period (Stage IV cancer; [11]): 23
- Stable Disease, patient status through end of five year study period (Stage IV cancer; [11]): 22
- five-year survival (Stage IV cancer; Stage IV renal cancer): 56%
- subjects in total remission (Stage IV cancer; Stage IV renal cancer): 17%
- subjects stable or in partial remission (Stage IV cancer; Stage IV renal cancer): 39%
- Complete Remission, patient status through end of five year study period (Stage IV cancer; [12]): 3
- Not Surviving, patient status through end of five year study period (Stage IV cancer; [12]): 8
- Partial Remission, patient status through end of five year study period (Stage IV cancer; [12]): 0
- Stable Disease, patient status through end of five year study period (Stage IV cancer; [12]): 7
- five-year survival (Stage IV cancer; Stage IV sarcoma): 48%
- subjects in total remission (Stage IV cancer; Stage IV sarcoma): 9%
- subjects stable or in partial remission (Stage IV cancer; Stage IV sarcoma): 39%
- Complete Remission, patient status through end of five year study period (Stage IV cancer; [13]): 2
- Not Surviving, patient status through end of five year study period (Stage IV cancer; [13]): 12
- Partial Remission, patient status through end of five year study period (Stage IV cancer; [13]): 2
- Stable Disease, patient status through end of five year study period (Stage IV cancer; [13]): 7
- five-year survival (Stage IV cancer; Stage IV uterine cancer): 47%
- subjects in total remission (Stage IV cancer; Stage IV uterine cancer): 5%
- subjects stable or in partial remission (Stage IV cancer; Stage IV uterine cancer): 41%
- Complete Remission, patient status through end of five year study period (Stage IV cancer; [14]): 2
- Not Surviving, patient status through end of five year study period (Stage IV cancer; [14]): 18
- Partial Remission, patient status through end of five year study period (Stage IV cancer; [14]): 4
- Stable Disease, patient status through end of five year study period (Stage IV cancer; [14]): 10
